Experimental data published in US20130143830A1, “AGENTS FOR COMBATING AND REDUCING THE IRRITATING ACTION OF SURFACTANTS IN COMPOSITIONS TO BE APPLIED TO THE SKIN FOR CARE OR CLEANSING OF THE FACE AND BODY” (GIULIANI S.P.A, priority 2008, published 2013).

Key:
[1] = system: EPISKIN model of reconstructed human epidermis; test: MTT cell viability test on EPISKIN model (in vitro skin irritation); assay type: cell-based
Protocol: 2.1.1 EPISKIN™ model (EPISKIN-SM™), EPISKIN SNC Lyon, France, is a model of reconstructed human epidermis. The human keratinocytes are seeded on a dermal substitute consisting of a collagen type I matrix coated with type IV collagen. A highly differentiated and stratified epidermis model is obtained after a 13-day culture period comprising the basal, suprabasal, spinous and granular layers and a functional stratum corneum (Tinois et al., 1984). The model is used in the skin irritation applying the substances being examined at topical level to the epidermis and subsequently assessing cell viability.
10 μl of the solutions were applied to the surface of the epidermis for 15 minutes, followed by 42 hours of recovery.
VitroScreen is implementing a quality system in compliance with the GLP regulations (2004/9/CE and 2004/10/CE) in preparation of the GLP Audit and relative certification. The methods utilized in the study were entered in the list of VitroScreen methods. Following a validation study coordinated by ECVAM the Episkin test system was validated by the ESAC (27/04/07); this uses a model of epidermis reconstructed in vitro—EPISKIN—to assess skin irritation produced by chemical substances for hazard identification and R38 classification: cell viability is quantified after 15 min of exposure +42 h of recovery. Quantification of IL-1α with the ELISA method is part of the validated method for skin irritation as it allows the substances to be distinguished even when there is no decrease in cell viability.
The MTT test is considered an international standard for quantification of cytotoxicity (ISO 10993-5). The method allows quantification of the cytotoxic effect produced by the product through measuring cell viability. Cytotoxicity is quantified by measuring the decrease in cell viability compared to an untreated negative control. It is based on the metabolizing reaction which takes place between the salt of tetrazolium (MTT) and the mitochondrial enzymes (succinate dehydrogenase) after contact with the product for the various treatment times: only the viable cell can transform the salt of tetrazolium into the insoluble derivative (Formazan), reaction which is highlighted by the formation of a purple color at the bottom of the insert.
Metabolization of the salt takes place at the level of the basal cells of the epithelium in the area above the polycarbonate support.
The purple colored derivative is extracted in isopropanol and quantified spectrophotometrically at 570 nm.
At the end of treatment and post-incubation with the substances being examined, the EPISKIN models are transferred to 12 well plates, filled with 2 ml of MTT (used at the concentration of 0.3 mg/ml in the assay medium) and the test is conducted for 3 hours at 37° C., 5% CO2, 90% humidity.
The formazan is extracted from the tissue in Eppendorf tubes with 500 μl of acidified isopropanol (0.04 N HCL final concentration) with incubation in the dark under stirring for 4 hours at room temperature.
10 μl of the substances being examined, of the positive (SDS 5%) and negative (sterile water) control are applied to the surface of the epidermis.
The treated tissues are maintained at room temperature for 15 minutes (±0.5 minutes).
At the end of incubation the tissues are washed 2-3 times with PBS and placed in an incubator with fresh maintenance medium for 42 hours of recovery.
The TEER is measured post-treatment and the MTT test is then conducted for 3 hours at 37° C. and formazan is subsequently extracted for 4 hours as described in the methods.
At the end of the test 2×200 μl of sample for each well are transferred to 96 well plates and read spectrophotometrically at 570 nm.
The optical densities are recorded directly by the Microplate autoreader (TECAN INFINITE M-200), exported to Excel files and the cell viability % is calculated compared to the optical density of the negative control. […]

[2] = pH of the prepared solutions; assay type: physicochemical; settings: positive control solution
Protocol: The solutions are prepared and the pH is measured.

SMILES	irritation classification by predictive model ([1]; MAG at 2%)	cytotoxic effects ([1]; MAG at 2%, 15 min exposure + 42 h recovery)	irritation classification by predictive model ([1]; MAG at 2%, listed as Mono-Ammonium Glycyrrhizate)	irritation classification by predictive model ([1]; MAG at 5%)	loss of viability ([1]; MAG at 5%, 15 min exposure + 42 h recovery) [%]	irritation classification by predictive model ([1]; MAG at 5%, listed as Mono-Ammonium Glycyrrhizate)	reduction in viability ([1]; SDS 5%, 10 μl, 15 min exposure + 42 h recovery, vs negative control) [%]	irritation classification by predictive model ([1]; solution as tested, 15 min exposure + 42 h recovery, cut-off 50% viability, sulfate)	pH [2]
CC1(C)[C@@H](O[C@H]2O[C@H](C(=O)O)[C@@H](O)[C@H](O)[C@H]2O[C@@H]2O[C@H](C(=O)O)[C@@H](O)[C@H](O)[C@H]2O)CC[C@]2(C)[C@H]3C(=O)C=C4[C@@H]5C[C@@](C)(C(=O)O)CC[C@]5(C)CC[C@@]4(C)[C@]3(C)CC[C@@H]12.N [MAG, monoammonium glycyrrhizinate]	non-irritant	no cytotoxic effects	NON IRRITANT (NI)	non-irritant	20	NON IRRITANT (NI)	–	–	–
CCCCCCCCCCCCOS(=O)(=O)[O-].[Na+] [SDS 5%, sodium dodecyl sulfate, reference compound]	–	–	–	–	–	–	80	R38 irritant	5.80
